Reference: patent US20260308145A1, “CDK2 INHIBITORS AND METHODS OF USING SAME” (Shenzhen lonova Life Science Co., Ltd., priority 2023, published 2026)

What was measured:
Assay type in all cases: biochemical
CDK1/cyclinB1 = biological target: T1, CDK1/cyclinB1 (Homo sapiens, UniProt P06493); experiment: Cyclin-dependent kinase activity assay (continuous ATP coupling assay), CDK1/cyclinB1; conditions: CDK1/cyclinB1 10 nM, ATP 200 μM, Histone1 copeptide 100 μM, 15 min preincubation, pH 7.5, 1% DMSO
T1 construct: purchased Carna Biosciences 04-102
T1 sequence (P06493 whole entry): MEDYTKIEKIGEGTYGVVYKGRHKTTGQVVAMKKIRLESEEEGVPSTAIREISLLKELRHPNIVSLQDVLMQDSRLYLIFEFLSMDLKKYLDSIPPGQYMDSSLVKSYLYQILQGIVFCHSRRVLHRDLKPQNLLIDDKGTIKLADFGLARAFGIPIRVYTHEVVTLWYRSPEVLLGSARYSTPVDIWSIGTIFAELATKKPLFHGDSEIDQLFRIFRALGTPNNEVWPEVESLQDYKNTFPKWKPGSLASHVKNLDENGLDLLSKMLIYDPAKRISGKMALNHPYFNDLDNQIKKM
T1 sequence (P14635 whole entry partner): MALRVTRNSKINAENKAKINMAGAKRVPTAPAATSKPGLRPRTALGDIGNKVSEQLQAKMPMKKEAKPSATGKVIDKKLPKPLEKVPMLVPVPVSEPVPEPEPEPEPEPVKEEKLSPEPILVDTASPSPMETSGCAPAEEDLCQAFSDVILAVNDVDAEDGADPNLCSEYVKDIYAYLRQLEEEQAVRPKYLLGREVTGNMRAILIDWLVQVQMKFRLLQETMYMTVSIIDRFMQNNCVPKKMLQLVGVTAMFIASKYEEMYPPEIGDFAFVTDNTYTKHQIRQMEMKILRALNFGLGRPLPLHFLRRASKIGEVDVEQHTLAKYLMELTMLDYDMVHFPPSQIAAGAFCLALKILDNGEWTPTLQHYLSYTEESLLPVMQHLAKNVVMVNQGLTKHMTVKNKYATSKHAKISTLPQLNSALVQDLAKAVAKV
Procedure: (§1) Cyclin-dependent kinase activity assay was measured by continuous ATP coupling assay in which ADP generated by kinase catalyzed phosphorylation was converted back to ATP by consuming phosphoenolpyruvate (PEP) and NADH catalyzed by pyruvate kinase/lactate dehydrogenase (PK/LDH). The assay compositions (see, Table 1) consist of one of the kinases, including CDK1/cyclinB1, CDK2/cyclinE1, CDK4/cyclinD3, and CDK6/cyclinD3 at the designated concentration, ATP at the corresponding Km of the kinase, copeptide and the ATP coupling system of PEP, NADH and PK/LDH. The assay was conducted in a reaction buffer of 20 mM Tris (pH 7.5) with 50 mM NaCl, 0.5 mM DTT and 0.04% BSA, and results were monitored continuously by fluorescence decrease of NADH with excitation at 340 nm and emission at 460 nm. Linear regression of the resulting reaction time traces gave reaction velocities.
(§2) For inhibition assay, compounds were first serial diluted in a 1:3 ratio from 10 μM to 0.05 nM using 10× reaction buffer. One of the CDK kinase was then introduced to compounds solution and incubated for 15 min. Finally, the compositions of ATP coupling system were introduced to the resulting solution to initiate the reaction. The final reaction mixture was in 1× reaction assay buffer with 1% DMSO. The half-maximal inhibition concentrations (IC50) for compounds were determined by fitting the plots of reaction velocity against compound concentration with 4-variable IC50 equation. The inhibition constants (Ki) were determined by fitting the same plots with quadratic/Morrison equation. Data were analyzed using commercially available software Graphpad Prism.
(§3) Exemplary results are presented as calculated IC50 values. • A: IC50≤10 nM • B: IC50>10 nM and IC50<100 nM • C: IC50≥100 nM

CDK2/cyclinE1 = biological target: T2, CDK2/cyclinE1 (Homo sapiens, UniProt P24941); experiment: Cyclin-dependent kinase activity assay (continuous ATP coupling assay), CDK2/cyclinE1; conditions: CDK2/cyclinE1 5 nM, ATP 300 μM, Rb copeptide 100 μM, 15 min preincubation, pH 7.5, 1% DMSO
T2 construct: purchased Carna Biosciences 04-165
Procedure: as §1, §2, §3

CDK4/cyclinD3 = biological target: T3, CDK4/cyclinD3 (Homo sapiens, UniProt P11802); experiment: Cyclin-dependent kinase activity assay (continuous ATP coupling assay), CDK4/cyclinD3; conditions: CDK4/cyclinD3 60 nM, ATP 500 μM, Rb copeptide 500 μM, 15 min preincubation, pH 7.5, 1% DMSO
T3 construct: purchased Carna Biosciences 04-105
T3 sequence (P11802 whole entry): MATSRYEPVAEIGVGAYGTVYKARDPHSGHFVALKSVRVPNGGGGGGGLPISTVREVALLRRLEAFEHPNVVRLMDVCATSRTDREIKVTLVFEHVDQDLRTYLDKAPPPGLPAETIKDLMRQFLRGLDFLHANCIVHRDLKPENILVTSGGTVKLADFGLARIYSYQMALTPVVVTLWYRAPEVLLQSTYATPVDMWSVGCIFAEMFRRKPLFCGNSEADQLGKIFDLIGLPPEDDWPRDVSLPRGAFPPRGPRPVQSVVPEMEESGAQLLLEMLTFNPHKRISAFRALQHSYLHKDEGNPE
T3 sequence (P30281 whole entry partner): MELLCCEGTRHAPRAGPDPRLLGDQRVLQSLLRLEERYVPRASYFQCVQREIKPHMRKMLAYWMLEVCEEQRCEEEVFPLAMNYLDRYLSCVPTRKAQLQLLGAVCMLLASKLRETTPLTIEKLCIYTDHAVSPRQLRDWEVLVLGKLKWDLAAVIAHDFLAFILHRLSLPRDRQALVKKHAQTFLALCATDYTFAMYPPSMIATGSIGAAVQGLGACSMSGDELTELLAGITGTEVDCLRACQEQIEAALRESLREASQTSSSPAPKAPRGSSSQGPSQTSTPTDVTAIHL
Procedure: as §1, §2, §3

CDK6/cyclinD3 = biological target: T4, CDK6/cyclinD3 (Homo sapiens, UniProt Q00534); experiment: Cyclin-dependent kinase activity assay (continuous ATP coupling assay), CDK6/cyclinD3; conditions: CDK6/cyclinD3 25 nM, ATP 500 μM, Rb copeptide 500 μM, 15 min preincubation, pH 7.5, 1% DMSO
T4 construct: purchased Carna Biosciences 04-107
T4 sequence (Q00534 whole entry): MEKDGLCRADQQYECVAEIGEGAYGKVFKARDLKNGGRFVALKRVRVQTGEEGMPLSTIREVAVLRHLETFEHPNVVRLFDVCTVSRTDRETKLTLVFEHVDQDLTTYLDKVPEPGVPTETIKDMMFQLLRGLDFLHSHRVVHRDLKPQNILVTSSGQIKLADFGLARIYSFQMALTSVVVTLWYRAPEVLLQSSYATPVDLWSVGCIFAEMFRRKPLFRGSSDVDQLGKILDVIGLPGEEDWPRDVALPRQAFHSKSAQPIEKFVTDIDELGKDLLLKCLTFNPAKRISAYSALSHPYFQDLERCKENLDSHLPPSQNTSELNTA
T4 sequence (P30281 whole entry partner): as the sequence (P30281 whole entry partner) above
Procedure: as §1, §2, §3

Compound | IC50 (CDK1/cyclinB1) [nM] | IC50 (CDK2/cyclinE1) [nM] | IC50 (CDK4/cyclinD3) [nM] | IC50 (CDK6/cyclinD3) [nM]
CNS(=O)(=O)c1ccc(Nc2ncc(C(F)(F)F)c(-n3cc(C4=CCCC4)cn3)n2)cc1 [Example 12, 4-((4-(4-(cyclopent-1-en-1-yl)-1H-pyrazol-1-yl)-5-(trifluoromethyl)pyrimidin-2-yl)amino)-N-methylbenzenesulfonamide] | ≥ 100 | 10 to 100 | 10 to 100 | ≥ 100
CNS(=O)(=O)c1ccc(Nc2ncc(C(F)(F)F)c(-n3cc(C4CCNCC4)cn3)n2)cc1 [Example 13] | 10 to 100 | ≤ 10 | 10 to 100 | 10 to 100
CNS(=O)(=O)c1ccc(Nc2ncc(C(F)(F)F)c(-n3cc(C4CCN(C(C)=O)CC4)cn3)n2)cc1 [Example 14] | ≥ 100 | 10 to 100 | 10 to 100 | ≥ 100
CNS(=O)(=O)c1ccc(Nc2ncc(C(F)(F)F)c(-n3cc(C4CNC4)cn3)n2)cc1 [Example 15] | 10 to 100 | ≤ 10 | 10 to 100 | 10 to 100
CNS(=O)(=O)c1ccc(Nc2ncc(C(F)(F)F)c(-n3cccn3)n2)cc1 [Example 16, N-methyl-4-[[4-pyrazol-1-yl-5-(trifluoromethyl)pyrimidin-2-yl]amino]benzene sulfonamide] | ≥ 100 | ≤ 10 | ≥ 100 | ≥ 100
[2H]C([2H])([2H])NS(=O)(=O)c1ccc(Nc2ncc(C(F)(F)F)c(-n3cccn3)n2)cc1 [Example 17] | ≥ 100 | ≤ 10 | ≥ 100 | ≥ 100
NS(=O)(=O)c1ccc(Nc2ncc(C(F)(F)F)c(-n3cccn3)n2)cc1 [Example 18] | ≥ 100 | ≤ 10 | ≥ 100 | ≥ 100
CS(=O)(=O)N1CCC(Nc2ncc(C(F)(F)F)c(-n3cccn3)n2)CC1 [Example 19] | ≥ 100 | ≤ 10 | 10 to 100 | 10 to 100
CNS(=O)(=O)c1ccc(Nc2ncc(C(F)F)c(-n3cccn3)n2)cc1 [Example 20] | ≥ 100 | 10 to 100 | ≥ 100 | ≥ 100
CNS(=O)(=O)c1ccc(Nc2ncc(F)c(-n3cccn3)n2)cc1 [Example 21] | ≥ 100 | 10 to 100 | ≥ 100 | ≥ 100
CNS(=O)(=O)c1ccc(Nc2ncc(C)c(-n3cccn3)n2)cc1 [Example 22] | ≥ 100 | 10 to 100 | ≥ 100 | ≥ 100
CNS(=O)(=O)c1ccc(Nc2nccc(-n3cccn3)n2)cc1 [Example 23] | ≥ 100 | ≥ 100 | ≥ 100 | ≥ 100
CNS(=O)(=O)c1ccc(Nc2ncc(Cl)c(-n3cccn3)n2)cc1 [Example 24] | ≥ 100 | 10 to 100 | ≥ 100 | ≥ 100
CNS(=O)(=O)c1ccc(Nc2ncc(Br)c(-n3cccn3)n2)cc1 [Example 25] | ≥ 100 | ≤ 10 | ≥ 100 | ≥ 100
CNS(=O)(=O)c1ccc(Nc2ncc(C#N)c(-n3cccn3)n2)cc1 [Example 26] | ≥ 100 | 10 to 100 | ≥ 100 | ≥ 100
CNS(=O)(=O)c1ccc(Nc2ncc(C(F)(F)F)c(-n3cccn3)n2)c(F)c1 [Example 27] | ≥ 100 | ≥ 100 | ≥ 100 | ≥ 100
NS(=O)(=O)c1ccc(Nc2ncc(C(F)(F)F)c(-n3cccn3)n2)c(F)c1 [Example 28] | ≥ 100 | 10 to 100 | ≥ 100 | ≥ 100
CC1(Nc2ncc(C(F)(F)F)c(-n3cccn3)n2)CCN(S(C)(=O)=O)CC1 [Example 29] | ≥ 100 | ≥ 100 | ≥ 100 | ≥ 100
O=S(=O)(NC1CC1)c1ccc(Nc2ncc(C(F)(F)F)c(-n3cccn3)n2)cc1 [Example 30] | ≥ 100 | 10 to 100 | ≥ 100 | ≥ 100

Now from value to compound:

IC50 (CDK1/cyclinB1) [nM] | IC50 (CDK2/cyclinE1) [nM] | IC50 (CDK4/cyclinD3) [nM] | IC50 (CDK6/cyclinD3) [nM] | Compound
≥ 100 | ≥ 100 | ≥ 100 | ≥ 100 | CCS(=O)(=O)N1C2CCC1CC(Nc1ncc(C(F)(F)F)c(-n3cccn3)n1)C2 (stereo not shown) [Example 31]
≥ 100 | ≥ 100 | ≥ 100 | ≥ 100 | CCS(=O)(=O)N1CC2(CC(Nc3ncc(C(F)(F)F)c(-n4cccn4)n3)C2)C1 [Example 32, 2-(ethyldioxo-λ6-sulfanyl)-6-{[4-(pyrazol-1-yl)-5-(trifluoromethyl)pyrimidin-2-yl]amino}-2-azaspiro[3.3]heptane]
≥ 100 | ≥ 100 | ≥ 100 | ≥ 100 | CN1CCC(N2CCN(c3ccc(Nc4ncc(C(F)(F)F)c(-n5cccn5)n4)cc3)CC2)CC1 [Example 33]
≥ 100 | ≥ 100 | ≥ 100 | ≥ 100 | FC(F)(F)c1cnc(Nc2ccc(S(F)(F)(F)(F)F)cc2)nc1-n1cccn1 [Example 34]
≥ 100 | ≤ 10 | 10 to 100 | ≥ 100 | CN1CCC(NS(=O)(=O)c2ccc(Nc3ncc(C(F)(F)F)c(-n4cccn4)n3)cc2)CC1 [Example 35]
10 to 100 | ≤ 10 | ≥ 100 | ≥ 100 | O=S(=O)(NCCO)c1ccc(Nc2ncc(C(F)(F)F)c(-n3cccn3)n2)cc1 [Example 36, 4-((4-(1H-pyrazol-1-yl)-5-(trifluoromethyl)pyrimidin-2-yl)amino)-N-(2-hydroxyethyl) benzene sulfonamide]
≥ 100 | ≤ 10 | 10 to 100 | 10 to 100 | O=S(=O)(c1ccc(Nc2ncc(C(F)(F)F)c(-n3cccn3)n2)cc1)N1CCNCC1 [Example 37]
≥ 100 | 10 to 100 | ≥ 100 | ≥ 100 | CN1CCN(S(=O)(=O)c2ccc(Nc3ncc(C(F)(F)F)c(-n4cccn4)n3)cc2)CC1 [Example 38]
≥ 100 | ≥ 100 | ≥ 100 | ≥ 100 | O=C1NCc2cc(Nc3ncc(C(F)(F)F)c(-n4cccn4)n3)ccc21 [Example 39]
≥ 100 | ≤ 10 | ≥ 100 | ≥ 100 | O=S(=O)(NC1COC1)c1ccc(Nc2ncc(C(F)(F)F)c(-n3cccn3)n2)cc1 [Example 40]
≥ 100 | 10 to 100 | ≥ 100 | ≥ 100 | O=S(=O)(NC1CC(F)(F)C1)c1ccc(Nc2ncc(C(F)(F)F)c(-n3cccn3)n2)cc1 [Example 41]
≥ 100 | ≥ 100 | ≥ 100 | ≥ 100 | O=S1(=O)NCc2cc(Nc3ncc(C(F)(F)F)c(-n4cccn4)n3)ccc21 [Example 42, 1,1-dioxo-N-[4-pyrazol-1-yl-5-(trifluoromethyl)pyrimidin-2-yl]-2,3-dihydro-1,2-benzothiazol-5-amine]
10 to 100 | ≤ 10 | 10 to 100 | 10 to 100 | CN(C)CCNS(=O)(=O)c1ccc(Nc2ncc(C(F)(F)F)c(-n3cccn3)n2)cc1 [Example 43]
≥ 100 | 10 to 100 | ≥ 100 | ≥ 100 | CNS(=O)(=O)c1ccc(Nc2ncc(C(F)(F)F)c(-n3cc(Br)cn3)n2)cc1 [Example 44]
≥ 100 | 10 to 100 | ≥ 100 | ≥ 100 | CNS(=O)(=O)c1ccc(Nc2ncc(C(F)(F)F)c(-n3cc(F)cn3)n2)cc1 [Example 45]
≥ 100 | ≤ 10 | 10 to 100 | ≥ 100 | CNS(=O)(=O)c1ccc(Nc2ncc(C(F)(F)F)c(-n3cc(C)cn3)n2)cc1 [Example 46]
10 to 100 | 10 to 100 | ≥ 100 | ≥ 100 | CNS(=O)(=O)c1ccc(Nc2ncc(C(F)(F)F)c(-n3cc(C(F)(F)F)cn3)n2)cc1 [Example 47]
≥ 100 | 10 to 100 | ≤ 10 | 10 to 100 | CNS(=O)(=O)c1ccc(Nc2ncc(C(F)(F)F)c(-n3cc(CC(C)C)cn3)n2)cc1 [Example 48]
